Literature values as cited in patent publication US20050202001A1 (priority 2002, published 2005).

Columns and labels:
[1] = tested on: normal human neonatal melanocytes

Q: What does the source list for `COc1cccc(-c2cc(=O)c3ccccc3o2)c1N` [PD98059]?
A: melanogenesis [1]: stimulated melanogenesis; melanogenesis (human melanoma cells): stimulated melanogenesis
